Earlier results as cited in patent US20130137664A1, “LOW-DOSED SOLID ORAL DOSAGE FORMS FOR HRT” (BAYER INTELLECTUAL PROPERTY GMBH, priority 2010, published 2013).

Test system: moderate or severe hot flushes in menopausal women
Settings: 2 mg E2

C[C@]12CC[C@@H]3c4ccc(O)cc4CC[C@H]3[C@@H]1CC[C@@H]2O [E2, estradiol]
estrogen-related adverse events: increased
